According to publication PMC2861162, “Purified TPC Isoforms Form NAADP Receptors with Distinct Roles for Ca^2+ Signaling and Endolysosomal Trafficking” (Current Biology, 2010):
pIC50: −log10 of the molar value.

Key:
SpTPC1 = target: T1, SpTPC1 (Strongylocentrotus purpuratus, UniProt B8PXJ8); assay: […]NAADP competition binding on immunoprecipitate; conditions: competitor against [32P]NAADP; immunopurified native complex; K+-dependent irreversible binding
T1 construct: endogenous full-length protein immunoprecipitated with anti-SpTPC1 serum from solubilized egg membranes (S10P100 fraction); native complex, may carry associated proteins
T1 sequence (B8PXJ8 1-882): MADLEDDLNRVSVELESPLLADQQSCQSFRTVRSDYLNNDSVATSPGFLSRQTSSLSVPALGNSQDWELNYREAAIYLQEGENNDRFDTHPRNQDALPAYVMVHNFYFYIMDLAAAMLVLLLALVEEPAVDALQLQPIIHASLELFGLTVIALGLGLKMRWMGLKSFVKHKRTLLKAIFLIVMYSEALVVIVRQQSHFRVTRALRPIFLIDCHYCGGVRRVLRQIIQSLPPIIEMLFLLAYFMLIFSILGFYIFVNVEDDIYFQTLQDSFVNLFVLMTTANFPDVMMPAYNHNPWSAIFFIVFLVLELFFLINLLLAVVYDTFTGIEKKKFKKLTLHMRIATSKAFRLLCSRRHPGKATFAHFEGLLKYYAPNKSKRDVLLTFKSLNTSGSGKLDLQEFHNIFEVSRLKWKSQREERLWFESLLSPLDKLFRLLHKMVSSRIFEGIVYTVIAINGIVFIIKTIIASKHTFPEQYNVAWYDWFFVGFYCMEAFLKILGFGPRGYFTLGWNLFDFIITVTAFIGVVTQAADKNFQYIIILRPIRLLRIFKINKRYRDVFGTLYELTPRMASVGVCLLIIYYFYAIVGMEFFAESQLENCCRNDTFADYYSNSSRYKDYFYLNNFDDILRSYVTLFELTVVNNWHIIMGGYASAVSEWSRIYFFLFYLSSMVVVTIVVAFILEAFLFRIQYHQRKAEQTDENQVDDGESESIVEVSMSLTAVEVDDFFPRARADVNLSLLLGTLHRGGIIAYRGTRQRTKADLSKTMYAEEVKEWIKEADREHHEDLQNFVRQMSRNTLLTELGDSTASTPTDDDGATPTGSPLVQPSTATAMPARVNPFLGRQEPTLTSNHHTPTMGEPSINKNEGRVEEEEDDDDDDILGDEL

SpTPC3 = target: T2, SpTPC3 (Strongylocentrotus purpuratus, UniProt B8PXK0); assay: as above; conditions: competitor against [32P]NAADP; immunopurified native complex; K+-dependent irreversible binding
T2 construct: endogenous full-length protein immunoprecipitated with anti-SpTPC3 serum from solubilized egg membranes (S10P100 fraction); possibly homodimer; may carry associated proteins
T2 sequence (B8PXK0 1-840): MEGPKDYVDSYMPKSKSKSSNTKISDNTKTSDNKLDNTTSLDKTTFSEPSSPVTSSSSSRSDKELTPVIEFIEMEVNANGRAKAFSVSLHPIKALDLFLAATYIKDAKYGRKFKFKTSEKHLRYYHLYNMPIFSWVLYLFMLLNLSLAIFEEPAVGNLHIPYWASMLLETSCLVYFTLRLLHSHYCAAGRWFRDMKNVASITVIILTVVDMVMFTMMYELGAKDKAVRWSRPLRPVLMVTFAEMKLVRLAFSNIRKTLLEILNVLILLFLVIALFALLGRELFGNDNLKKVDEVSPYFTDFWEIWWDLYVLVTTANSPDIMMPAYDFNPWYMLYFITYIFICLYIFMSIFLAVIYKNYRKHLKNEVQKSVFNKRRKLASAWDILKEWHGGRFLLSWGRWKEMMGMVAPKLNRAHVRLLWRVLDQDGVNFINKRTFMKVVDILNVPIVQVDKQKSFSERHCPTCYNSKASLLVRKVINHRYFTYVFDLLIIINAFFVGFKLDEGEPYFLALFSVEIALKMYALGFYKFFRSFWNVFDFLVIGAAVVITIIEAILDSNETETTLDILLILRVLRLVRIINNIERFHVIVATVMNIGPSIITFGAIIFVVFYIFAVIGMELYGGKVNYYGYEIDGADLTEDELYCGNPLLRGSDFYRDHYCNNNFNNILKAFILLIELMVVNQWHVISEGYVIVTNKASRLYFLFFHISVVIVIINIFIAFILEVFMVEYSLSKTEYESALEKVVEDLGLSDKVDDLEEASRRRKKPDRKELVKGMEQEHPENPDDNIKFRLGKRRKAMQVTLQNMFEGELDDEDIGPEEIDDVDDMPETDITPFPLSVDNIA

pIC50 (SpTPC1): 8.85
pIC50 (SpTPC3): 9.05
SMILES: Nc1ncnc2c1ncn2[C@@H]1O[C@H](COP(=O)(O)OP(=O)(O)OC[C@H]2O[C@@H]([n+]3cccc(C(=O)O)c3)[C@H](O)[C@@H]2O)[C@@H](O)[C@H]1OP(=O)(O)O [NAADP]
